Literature values as cited in US20260207488A1, “Liquid pharmaceutical composition containing flecainide and process for the preparation thereof” (Colonis Pharma Ltd, priority 2022, published 2026).

Experiments:
[1] = water

**Q.** What does the source list for `CC(=O)O.O=C(NCC1CCCCN1)c1cc(OCC(F)(F)F)ccc1OCC(F)(F)F` (centres unmarked) [Flecainide Acetate, N-(2-piperidinylmethyl)-2,5-bis(2,2,2-trifluoroethoxy)benzamide monoacetate]?
**A.** solubility (BCS): high solubility; aqueous solubility [1]: about 48.0 mg/mL
